Results from patent US20230135635A1, “INHIBITORS OF ULK1/2 AND METHODS OF USING SAME” (SALK INSTITUTE FOR BIOLOGICAL STUDIES, priority 2020, published 2023).

Target: T1, recombinant human ULK1 protein (1-649) (Homo sapiens, UniProt O75385)
T1 construct: recombinant human ULK1 protein (1-649, SignalChem #U01-11G); purchased SignalChem U01-11G
T1 sequence (O75385 1-649): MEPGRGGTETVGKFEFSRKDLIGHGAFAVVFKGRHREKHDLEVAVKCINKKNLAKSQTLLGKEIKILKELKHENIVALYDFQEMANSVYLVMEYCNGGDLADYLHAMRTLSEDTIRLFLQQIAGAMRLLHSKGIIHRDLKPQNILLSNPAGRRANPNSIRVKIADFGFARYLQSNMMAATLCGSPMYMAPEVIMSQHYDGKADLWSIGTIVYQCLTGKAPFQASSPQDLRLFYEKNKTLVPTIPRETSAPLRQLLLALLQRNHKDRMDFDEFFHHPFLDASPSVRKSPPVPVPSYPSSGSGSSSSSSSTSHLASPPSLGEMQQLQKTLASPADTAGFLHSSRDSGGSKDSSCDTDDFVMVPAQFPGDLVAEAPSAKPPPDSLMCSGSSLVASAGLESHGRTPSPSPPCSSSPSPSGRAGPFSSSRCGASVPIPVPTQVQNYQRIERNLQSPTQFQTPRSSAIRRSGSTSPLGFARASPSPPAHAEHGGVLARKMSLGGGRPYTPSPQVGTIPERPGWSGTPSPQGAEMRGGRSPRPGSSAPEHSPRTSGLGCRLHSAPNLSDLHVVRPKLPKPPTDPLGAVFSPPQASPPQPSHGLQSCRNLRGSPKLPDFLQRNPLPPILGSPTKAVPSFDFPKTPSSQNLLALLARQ
Experiment: ULK1 inhibition assay (ADP Glo)
Assay type: biochemical
Experimental: Illustrative compounds of Formula I and related analogs are shown in Table 1 (along with their respective IC50 values for ULK1 inhibition assays). For ADP Glo assay, IC50s are represented nM, with A representing IC50<1 nM, B representing 10 nM>IC50>1 nM, and C representing IC50>10 nM. NT indicates the compound was not tested. ULK1 inhibition assays were performed in a 5 uL reaction volume containing 2 ug/mL recombinant human ULK1 protein (1-649, SignalChem #U01-11G) and 80 ug/mL myelin basic protein (MBP, Sigma-Aldrich #M1891) in the presence of 25 uM ATP (Sigma-Aldrich A7699). ULK 1 inhibition was assessed after one hour. Compounds were tested in triplicate in a 16-dose IC50 mode with 3-fold serial dilution and a starting dose of 30 uM. Staurosporine, a non-selective protein kinase inhibitor, was used in the assay as a positive control.
According to another embodiment, the present disclosure provides methods of producing the above-defined compounds. The compounds may be synthesized using any suitable techniques. Advantageously, these compounds are conveniently synthesized from readily available starting materials. Synthetic chemistry transformations and methodologies useful in synthesizing the compounds described herein are known in the art and include, for example, those described in R. Larock, Comprehensive Organic Transformations (1989); T. W. Greene and P. G. M. Wuts, Protective Groups in Organic Synthesis, 2d. Ed. (1991); L. Fieser and M. Fieser, Fieser and Fieser's Reagents for Organic Synthesis (1994); and L. Paquette, ed., Encyclopedia of Reagents for Organic Synthesis (1995).). In general, synthesis and measurements of ULK1 inhibitory activity of the compounds described herein was performed using method analogous to those previously described in PCT International Application No. PCT/US2015/046777 which is hereby incorporated by reference in its entirety.

[1] = Table 1, 25 uM ATP, MBP substrate, one hour

| IC50 [1] [nM] | SMILES | also measured |
| --- | --- | --- |
| 1 to 10 | Cn1cnc(CN2CCc3ccc(Nc4ncc(C(F)(F)F)c(NC5CC5)n4)cc3C2)c1 [Compound A111] |  |
|  | COC(=O)c1ccccc1Oc1nc(Nc2ccc3occc3c2)ncc1Br [Compound B35] | IC50 (Table 2): > 1000 nM |
| 1 to 10 | CC(=O)N1CCc2ccc(Nc3ncc(C(F)(F)F)c(NC4CC4)n3)cc2C1 [Compound A98] |  |
| > 10 | NCC(=O)Nc1cnc(Nc2ccc3c(c2)CCNC3)nc1NC1CC1 [Compound A26] |  |
| < 1 | CN(C)CCN1CCc2cc(Nc3ncc(C(F)(F)F)c(NC4CC4)n3)ccc2C1 [Compound A44] |  |
|  | COC(=O)c1ccccc1Oc1nc(Nc2ccc(N3CCCC3)cc2)ncc1Br [Compound B27] | IC50 (Table 2): > 1000 nM |
| < 1 | FC(F)(F)c1cnc(Nc2ccc3c(c2)CCN(C2CNC2)C3)nc1NC1CC1 [Compound A52] |  |
|  | COC(=O)c1ccccc1Oc1nc(Nc2ccc3c(c2)OCCO3)ncc1Br [Compound B14] | IC50 (Table 2): > 1000 nM |
|  | CNC(=O)c1ccccc1Nc1nc(Nc2cccc(OC(F)(F)F)c2)ncc1Br [Compound E21, 2-((5-Bromo-2-((3-(trifluoromethoxy)phenyl)amino)pyrimidin-4-yl)amino)-N-methylbenzamide] | IC50 (Table 3): 5 to 100 nM |
| 1 to 10 | CC(C)(C)OC(=O)C1Cc2ccc(Nc3ncc(C(F)(F)F)c(NC4CC4)n3)cc2C1 (stereo not shown) [Compound A54] |  |
| < 1 | COCCN1CCc2cc(Nc3ncc(C(F)(F)F)c(NC4CC4)n3)ccc2C1 [Compound A50] |  |
|  | COCc1ccccc1Nc1nc(Nc2cc(OC)c(OC)c(OC)c2)ncc1Br [Compound C2] | IC50 (Table 3): < 5 nM |
|  | CNC(=O)c1ccccc1Nc1nc(Nc2ccc(OC(F)(F)F)cc2)ncc1Br [Compound E19, 2-((5-Bromo-2-((4-(trifluoromethoxy)phenyl)amino)pyrimidin-4-yl)amino)-N-methylbenzamide] | IC50 (Table 3): > 100 nM |
| < 1 | COc1ccc(CN2CCc3cc(Nc4ncc(C(F)(F)F)c(NC5CC5)n4)ccc3C2)cc1 [Compound A113] |  |
|  | COc1cc(Nc2ncc(Br)c(Nc3ccccc3C(=O)NCC(F)(F)F)n2)cc(OC)c1OC [Compound E23, 2-((5-Bromo-2-((3,4,5-trimethoxyphenyl)amino)pyrimidin-4-yl)amino)-N-(2,2,2-trifluoroethyl)benzamide] | IC50 (Table 3): 5 to 100 nM |
| > 10 | CNCC(=O)N1CCc2ccc(Nc3ncc(Br)c(Nc4ccccc4C(=O)NC)n3)cc2C1 [Compound A153, 2-{5-Bromo-2-[2-(2-methylamino-acetyl)-1,2,3,4-tetrahydro-isoquinolin-7-ylamino]-pyrimidin-4-ylamino}-N-methyl-benzamide] |  |
| < 1 | NCCC(=O)N1CCc2cc(Nc3ncc(C(F)(F)F)c(NC4CC4)n3)ccc2C1 [Compound A31] |  |
| > 10 | CNC(=O)c1ccccc1Nc1nc(Nc2ccc3c(c2)CC[N+](C)(C)C3)ncc1Br [Compound A143, 6-[5-Bromo-4-(2-methylcarbamoyl-phenylamino)-pyrimidin-2-ylamino]-2,2-dimethyl-1,2,3,4-tetrahydro-isoquinolinium; iodide] |  |
| > 10 | CNC(=O)c1ccccc1Nc1nc(Nc2ccc3c(c2)CCN(C(=O)CN)C3)ncc1Br [Compound A132, 2-{2-[2-(2-Amino-acetyl)-1,2,3,4-tetrahydro-isoquinolin-6-ylamino]-5-bromo-pyrimidin-4-ylamino}-N-methyl-benzamide] |  |
|  | COc1cc(Nc2ncc(Br)c(Nc3ccccc3CN(C)C)n2)cc(OC)c1OC [Compound C18] | IC50 (Table 3): 5 to 100 nM |
|  | CNC(=O)c1ccccc1Oc1nc(Nc2cc(F)c(F)c(F)c2)ncc1Br [Compound B1] | IC50 (Table 2): > 1000 nM |
|  | COC(=O)c1ccccc1Oc1nc(Nc2cccc(OC(F)F)c2)ncc1Br [Compound B29] | IC50 (Table 2): > 1000 nM |
|  | CNC(=O)c1ccccc1Nc1nc(Nc2ccc(OC)c(OC)c2)ncc1Br [Compound E16, 2-((5-Bromo-2-((3,4-dimethoxyphenyl)amino)pyrimidin-4-yl)amino)-N-methylbenzamide] | IC50 (Table 3): 5 to 100 nM |
| < 1 | FC(F)(F)c1cnc(Nc2ccc3c(c2)CCN(Cc2ccncn2)C3)nc1NC1CC1 [Compound A75] |  |
| 1 to 10 | CCN1CCc2cc(Nc3ncc(C(F)(F)F)c(NC4CC4)n3)ccc2C1 [Compound A60] |  |

| IC50 [1] [nM] | SMILES | also measured |
| --- | --- | --- |
| < 1 | FC(F)(F)c1cnc(Nc2ccc3c(c2)CN(C2CNC2)CC3)nc1NC1CC1 [Compound A110] |  |
|  | COc1cc(Nc2ncc(Br)c(Oc3ccccc3C(=O)O)n2)cc(OC)c1OC [Compound B4] | IC50 (Table 2): 100 to 1000 nM |
|  | COC(=O)c1ccccc1Oc1nc(Nc2cccc(OC)c2)ncc1Br [Compound B23] | IC50 (Table 2): > 1000 nM |
|  | COC(=O)CN(C)C(=O)c1ccccc1Oc1nc(Nc2cc(OC)c(OC)c(OC)c2)ncc1Br [Compound B5] | IC50 (Table 2): 100 to 1000 nM |
| < 1 | FC(F)(F)c1cnc(Nc2ccc3c(c2)CCN(Cc2ccccc2)C3)nc1NC1CC1 [Compound A8] |  |
|  | C#CCN1CCN(c2ccc(Nc3ncc(Br)c(Nc4ccccc4C(=O)NC)n3)cc2)CC1 [Compound E25, 2-((5-Bromo-2-((4-(4-(prop-2-yn-1-yl)piperazin-1-yl)phenyl)amino)pyrimidin-4-yl)amino)-N-methylbenzamide] | IC50 (Table 3): 5 to 100 nM |
| 1 to 10 | N[C@@H](CO)C(=O)N1CCc2cc(Nc3ncc(C(F)(F)F)c(NC4CC4)n3)ccc2C1 (stereo in doubt) [Compound A57] |  |
| 1 to 10 | NCCN1CCc2ccc(Nc3ncc(C(F)(F)F)c(NC4CC4)n3)cc2C1 [Compound A103] |  |
| < 1 | CN1CCC(N2CCc3cc(Nc4ncc(C(F)(F)F)c(NC5CC5)n4)ccc3C2)CC1 [Compound A73] |  |
| 1 to 10 | O=C(CN1CCOCC1)N1CCc2cc(Nc3ncc(C(F)(F)F)c(NC4CC4)n3)ccc2C1 [Compound A115] |  |
|  | COC(=O)c1ccc(Nc2ncc(Br)c(Oc3ccccc3C(=O)OC)n2)cc1 [Compound B43] | IC50 (Table 2): > 1000 nM |
| > 10 | CNC(=O)c1ccccc1Nc1nc(Nc2ccc3c(c2)CN(C(=O)[C@@H](N)CO)CC3)ncc1Br (racemic) [Compound A154, 2-{2-[2-(2-Amino-3-hydroxy-propionyl)-1,2,3,4-tetrahydro-isoquinolin-7-ylamino]-5-bromo-pyrimidin-4-ylamino}-N-methyl-benzamide] |  |
| 1 to 10 | CCN(CC)C(=O)N1CCc2cc(Nc3ncc(C(F)(F)F)c(NC4CC4)n3)ccc2C1 [Compound A10] |  |
| > 10 | CNC(=O)c1ccccc1Nc1nc(Nc2ccc3c(c2)CN(CCC(N)=O)CC3)ncc1Br [Compound A166, 2-{5-Bromo-2-[2-(2-carbamoyl-ethyl)-1,2,3,4-tetrahydro-isoquinolin-7-ylamino]-pyrimidin-4-ylamino}-N-methyl-benzamide] |  |
| > 10 | Nc1cnc(Nc2ccc3c(c2)CCNC3)nc1NC1CC1 [Compound A59] |  |
|  | COc1cc(Nc2ncc(Br)c(Oc3ccccc3C(=O)NCCS(C)(=O)=O)n2)cc(OC)c1OC [Compound B8] | IC50 (Table 2): > 1000 nM |
| < 1 | CN1CCC(N2CCc3cc(Nc4ncc(C(F)(F)F)c(NC5CC5)n4)ccc3C2)C1 (stereo not shown) [Compound A114] |  |
| < 1 | Oc1ccc(CN2CCc3cc(Nc4ncc(C(F)(F)F)c(NC5CC5)n4)ccc3C2)cc1 [Compound A77] |  |
| > 10 | CN1CCc2cc(Nc3nccc(NC4CC4)n3)ccc2C1 [Compound A72] |  |
| < 1 | Cn1cc(CN2CCc3cc(Nc4ncc(C(F)(F)F)c(NC5CC5)n4)ccc3C2)cn1 [Compound A62] |  |
|  | COc1cc(Nc2ncc(Br)c(Nc3ccccc3CN(CCO)CCO)n2)cc(OC)c1OC [Compound C27] | IC50 (Table 3): 5 to 100 nM |
|  | COc1cc(Nc2ncc(Br)c(Nc3ccccc3C(=O)O)n2)cc(OC)c1OC [Compound E2] | IC50 (Table 3): < 5 nM |
|  | O=C(Nc1ccc(Nc2ncc(Br)c(Nc3ccccc3CO)n2)cc1)C1CC1 [Compound C12] | IC50 (Table 3): < 5 nM |
| > 10 | CNC(=O)c1ccccc1Nc1nc(Nc2ccc3c(c2)CCN(CCC(N)=O)C3)ncc1Br [Compound A142, 2-{5-Bromo-2-[2-(2-carbamoyl-ethyl)-1,2,3,4-tetrahydro-isoquinolin-6-ylamino]-pyrimidin-4-ylamino}-N-methyl-benzamide] |  |
